Data taken from patent US20160128951A1, “PHARMACEUTICAL COMPOSITIONS OF FINGOLIMOD” (AIZANT DRUG RESEARCH SOLUTIONS PVT LTD, priority 2013, published 2016).

Assay: Stability study (impurities) at 40° C./75% RH for one week
Assay type: physicochemical
Method: Stability study was conducted for active ingredient, compositions of the present invention and comparative composition. The study was conducted at 40° C./75% RH for one week.

[1] = After one week at 40° C./75% RH, Sample (API)

CCCCCCCCc1ccc(CCC(N)(CO)CO)cc1.Cl [API, 2-amino-2-[2-(4-octylphenyl)ethyl]-propane-1,3-diol]
0.05 % w/w: Impurity 1 [1] | Total Impurities [1] | Impurity 1 (Initial, Sample) | Total Impurities (Initial, Sample)
